Assay results from BindingDB's records for patent US20250346592 (Celgene, 2025).
pIC50: −log10 of the molar value.

Target: Protein-arginine deiminase type-4 (Homo sapiens, UniProt Q9UM07)
Assay: RFMS2 Assay
Method: Final Assay Conditions:Total reaction volume: 25 μlAssay buffer: […] pH 7.4, 200 mM NaCl, 2 mM CaCl2, 5 mM DTT35 nM recombinant human PAD4500 μM TSTGGRQGSHH peptide1.2% DMSOStop solution: 10% formic acidReaction mixtures were incubated at room temperature for 30 minutes. 10 μl each of the reaction mixtures was then mixed with 40 μl of 10% formic acid in a microtiter plate. The plate was frozen at −80° C. before shipping out on dry ice for RapidFire mass spectroscopy analysis.Thawed samples were loaded onto the Rapid Fire 300 system (Agilent) wherein they were first sipped for 250 ms and then loaded onto a Agilent “C” (C18) cartridge using a mobile phase of water containing 0.09% formic acid/0.01% trifluoroacetic acid for 3000 ms desalting flowing at a rate of 1.5 ml/min. Once the samples were loaded and washed, a mobile phase of acetonitrile containing 0.09% formic acid/0.01% trifluoroacetic acid was used to elute the samples directly onto a Sciex API4000 triple quadrupole mass spectrometer for 3000 ms at a flow rate of 1.25 ml/min.

Chain of Protein-arginine deiminase type-4 (Q9UM07 whole entry): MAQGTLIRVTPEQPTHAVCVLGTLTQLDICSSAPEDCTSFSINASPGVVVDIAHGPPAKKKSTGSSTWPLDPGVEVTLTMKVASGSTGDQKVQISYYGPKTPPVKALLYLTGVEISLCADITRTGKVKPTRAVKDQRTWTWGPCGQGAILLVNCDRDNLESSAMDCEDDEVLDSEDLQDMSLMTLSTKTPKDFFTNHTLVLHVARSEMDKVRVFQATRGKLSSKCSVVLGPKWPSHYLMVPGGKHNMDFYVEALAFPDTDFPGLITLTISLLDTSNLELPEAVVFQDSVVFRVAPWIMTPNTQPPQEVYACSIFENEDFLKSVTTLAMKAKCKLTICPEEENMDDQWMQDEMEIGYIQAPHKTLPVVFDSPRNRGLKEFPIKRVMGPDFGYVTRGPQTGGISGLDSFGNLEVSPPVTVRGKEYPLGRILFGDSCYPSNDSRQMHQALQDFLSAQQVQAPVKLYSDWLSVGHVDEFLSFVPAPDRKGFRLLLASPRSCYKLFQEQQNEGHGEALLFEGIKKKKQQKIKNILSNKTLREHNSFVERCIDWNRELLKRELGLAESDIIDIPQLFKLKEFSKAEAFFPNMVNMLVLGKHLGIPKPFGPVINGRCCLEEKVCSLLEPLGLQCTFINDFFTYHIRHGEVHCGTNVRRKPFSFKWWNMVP

## COc1cccc2cc(-c3nc4cc5c(cc4n3C)CCN(C[C@H](N)CF)C5=O)n(CC(=O)N(C)C)c12 [US20250346592, Example 122]
  pIC50: < 6.00
